Consider five compounds from US12458643B2, “Antidepressant/anxiolytic drug in which PAC1 receptor antagonist is used” (KAGOSHIMA UNIVERSITY, priority 2020, dated 2025).

The target of one series is T1, PAC1 receptor (Homo sapiens, UniProt P41586).
T1 sequence (P41586 21-468): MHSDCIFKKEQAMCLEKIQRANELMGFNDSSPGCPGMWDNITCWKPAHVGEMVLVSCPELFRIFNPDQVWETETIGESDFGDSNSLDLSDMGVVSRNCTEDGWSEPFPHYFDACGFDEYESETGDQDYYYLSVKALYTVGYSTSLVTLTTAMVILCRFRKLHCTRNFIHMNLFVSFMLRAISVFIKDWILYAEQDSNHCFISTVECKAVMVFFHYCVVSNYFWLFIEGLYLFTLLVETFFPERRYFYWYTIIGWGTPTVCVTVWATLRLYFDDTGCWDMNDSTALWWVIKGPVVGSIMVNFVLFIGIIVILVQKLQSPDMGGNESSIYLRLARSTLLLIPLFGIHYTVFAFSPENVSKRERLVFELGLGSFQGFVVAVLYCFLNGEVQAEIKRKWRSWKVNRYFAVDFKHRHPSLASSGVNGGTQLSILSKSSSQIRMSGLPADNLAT
The note with it: disclosed in Patent Literature 2 (WO 2019/065794); cited from earlier work.

For series [1] the following is noted: disclosed in Patent Literature 2 (WO 2019/065794); cited from earlier work.
The subject of series [2] is normal mice. The series can be described thus: Light-dark test in normal mice. It is filed as in vivo, mouse. The note with it: normal male C57BL/6J mice, 30 mg/kg i.p., 60 min after administration, 10 min test. On the procedure:
The effects of PA-8 and PA-81004 on normal mice were evaluated by a light-dark test (test to measure spontaneous locomotion by exploiting the properties of mice to avoid light environments, and placing the mice in a light box and a dark box joined together (each 20 cm×20 cm, height: 30 cm); in this test, anxiety-like behavior is evaluated by measuring times spent in the light box and the dark box and the number of transitions between the light box and the dark box).
Male C57BL/6J mice (8 to 12 weeks old) were acclimatized to a laboratory for 60 minutes. Then, a vehicle (10% DMSO solution; dissolved in saline; n=13), PA-8 (30 mg/kg; n=12) or PA-81004 (30 mg/kg; n=12) was intraperitoneally administered thereto (0.1 mL/10 g). After a lapse of 60 minutes after administration, the test was conducted for 10 minutes. The results are shown in FIG. 2 (A: time spent in the light box, B: the number of transitions between the light and dark boxes; light box illuminance: 330 lx).
The effects of PA-9 and PA-915 on normal mice were evaluated by the light-dark test.
Male C57BL/6J mice (8 to 12 weeks old) were acclimatized to a laboratory (illuminance: 330 lx) for 60 minutes. Then, a vehicle (10% DMSO solution; dissolved in saline; n=12), PA-9 (30 mg/kg; n=10) or PA-915 (30 mg/kg; n=10) was intraperitoneally administered thereto (0.1 mL/10 g). After a lapse of 60 minutes after administration, the test was conducted for 10 minutes. The results are shown in FIG. 6 (A: time spent in the light box, B: the number of transitions between the light and dark boxes; light box illuminance: 330 lx).

Series [3] has as its system chronically corticosterone-administered model mice. The series can be described thus: Repeated corticosterone administration, forced swim test. It is filed as in vivo, mouse. The following applies: male mice, corticosterone 20 mg/kg s.c. 21 days; single i.p. PA-915 30 mg/kg, ketamine 20 mg/kg, fluoxetine 20 mg/kg; 24 hours later. The procedure: Chronically corticosterone-administered model mice are model mice that mimic high plasma corticosterone levels associated with the hyperactivation of the hypothalamic-pituitary-adrenal system under pathological stress, and are generally used as depression model mice.
A vehicle (0.5% carboxymethylcellulose solution) or corticosterone (20 mg/kg) was subcutaneously administered (0.1 mL/10 g) to male C57BL/6J mice (6 weeks old) for 21 days. A vehicle (10% DMSO solution; dissolved in saline; n=11), PA-915 (30 mg/kg; n=13), ketamine (20 mg/kg; n=13) or fluoxetine (20 mg/kg; n=15) was intraperitoneally administered thereto (0.1 mL/10 g) 3 hours after administration on the 21st day. The mice were forced to swim for 6 minutes 24 hours later, and an immobility time was measured. Mice given the vehicle by repeated administration without repeated corticosterone administration were used as a control (n=11). The data was indicated by mean±standard error. **P<0.01 (One-way ANOVA followed by Tukey-Kramer test).
A vehicle (0.5% carboxymethylcellulose solution) or corticosterone (20 mg/kg) was subcutaneously administered (0.1 mL/10 g) to female C57BL/6J mice (9 weeks old) for 21 days. […] The mice were forced to swim for 6 minutes 24 hours later, and an immobility time was measured. […]

Series [4] relates to normal mice. The series is described as follows: Spontaneous motor activity in normal mice (open field test). It is filed as in vivo, mouse. The following applies: i.p. PA-915 30 mg/kg, ketamine 20 mg/kg, fluoxetine 20 mg/kg, 30 min before vs 30 min after administration. The procedure:
(1) The effects of PA-915, ketamine and the existing drug fluoxetine on normal mice were evaluated by an open field test (test to measure spontaneous locomotion in a novel environment by exploiting the properties of mice to do exploratory behavior in such a novel environment, and using a 45 cm×45 cm box of 30 cm in height).
Male C57BL/6J mice (8 to 12 weeks old) were placed in the box (illuminance: 100 lx) and allowed to freely explore the box for 60 minutes. Then, a vehicle (V: 10% DMSO solution; dissolved in saline; n=8), PA-915 (PA: 30 mg/kg; n=9), ketamine (K: 20 mg/kg; n=8) or fluoxetine (F: 20 mg/kg; n=11) was intraperitoneally administered thereto (0.1 mL/10 g). Spontaneous motor activity was measured by using the total distances traveled for 30 minutes before administration and for 30 minutes after administration as indexes. The data was indicated by mean±standard error. **P<0.01; *P<0.05 (Two-way ANOVA followed by Tukey-Kramer test).

Turning to `C=CCOc1ccc(C2CC(=O)Nc3nc(N)[nH]c(=O)c32)cc1OC` (stereo not shown) [PA-8], the “PAC1 receptor antagonistic action” value on PAC1 receptor is given as “PAC1 receptor antagonistic action”. Further, the analgesic action entry in series [1] is given as “analgesic action”. Besides, the “pharmacological action in light-dark test (time in light box, transitions)” value (from here on “pharmacological action”) in the series with normal mice [2] is reported as “no pharmacological action”.
`O=C(NCCc1c[nH]cn1)C1CC(=O)N(c2n[nH]c3ccccc23)C1` (stereo not shown) [PA-9]: the “PAC1 receptor antagonistic action” value at PAC1 receptor was “PAC1 receptor antagonistic action”. For the same compound, the analgesic action entry in series [1] was “analgesic action”. Besides, the “pharmacological action” value in the series with normal mice [2] is “no pharmacological action”.
As to `Nc1nc2c(c(=O)[nH]1)C(c1cccc(OC(F)(F)F)c1)CC(=O)N2` (stereo not shown) [PA-81004, 2-Amino-5-(3-trifluoromethoxyphenyl)-5,8-dihydro-3H,6H-pyrido[2,3-d]pyrimidine-4,7-dione], the “pharmacological action” value in the series on normal mice [2] is listed as “no pharmacological action”.
`CNCCC(Oc1ccc(C(F)(F)F)cc1)c1ccccc1` (stereo not shown) [fluoxetine]: the “effect on depressive-like behavior (forced swim test, immobility time)” value in series [3] is “exhibited no improving effect”.
For `CNC1(c2ccccc2Cl)CCCCC1=O` (stereo not shown) [ketamine], the “change in spontaneous motor activity (total distance traveled)” value in the series on normal mice [4] is on record as “increase in spontaneous motor activity”. Besides, the “effect on depressive-like behavior (forced swim test, immobility time)” value in series [3] is reported as “improved depressive-like behavior”.
